Read-outs that look alike come from different tables or passages of the source.
What was measured:
[1] = system: HCV RLuc subgenomic replicon (genotype 1b) in Huh-7.5 cells; assay: HCV subgenomic replicon assay (Renilla luciferase); type: cell-based, hepatitis C virus; details: Hepatitis C virus
Excerpt: An HCV Renilla luciferase reporter construct (HCV RLuc; Huang, et al. (2006) Hepatology 43:81-90) was used to measure the effect of each compound on cellular HCV RNA levels. In HCV RLuc, the HCV internal ribosome entry site (IRES) drives the translation of the neomycin and Renilla luciferase genes while the HCV nonstructural proteins (NS3 to NS5B) are translated from the Encephalomyocarditis virus IRES (Huang, et al. (2006) supra). The plasmid DNA was cleaved with ScaI, purified by phenol/chloroform extraction followed by ethanol precipitation, and used as template for RNA transcription using […] T7 RNA transcription kit (Ambion, Austin, Tex.). The RNA transcripts were treated with 2 U DNase I (Ambion) at 37° C. for 30 minutes, purified by acid phenol/chloroform extraction, followed by isopropanol precipitation, and suspended in diethylpyrocarbonate-treated water. RNA concentration was determined by spectrophotometry by measuring the A260. RNA integrity and size was checked on 1% agarose gel. Transcribed RNA was stored in aliquots at −80° C. until needed.
Huh-7.5 cells were transfected with HCV RNA by electroporation. Briefly, subconfluent Huh7.5 cells were trypsinized, suspended in complete growth medium, and centrifuged at 1,000×g for 5 minutes at 4° C. The cell pellets were then washed twice with ice-cold phosphate-buffered saline (PBS) and suspended at 1.75×10^7 cells/mL in ice-cold PBS. Replicon RNA (5 μg) was mixed with 0.4 mL of cell suspension and transferred to 2 mm gap width electroporation cuvette (EPPENDORF AG, Germany) and pulsed 5 times for 99 μsec at 820 V over 1.1 sec intervals using the ECM 830 electroporator instrument (BTX Harvard Apparatus, Holliston, Mass.). After a 5 minute recovery period at room temperature, cells were transferred to 10 ml complete growth medium, and seeded into 10 cm diameter cell culture dishes. Twenty-four hours after transfection, the medium was replaced with fresh complete DMEM supplemented with 1 mg/ml geneticin (Invitrogen) and the medium was replaced every three to four days with fresh medium containing 1 mg/mL geneticin. Geneticin-resistant colonies were selected for a period of two weeks and expanded in the presence of 250 μg/mL geneticin.
HCV RLuc replicon cells were seeded at a density of 10×10^3 cells per well in 96-well plates and incubated for 4-5 hours to allow the cells to attach to the plate. The compounds dissolved in dimethyl sulfoxide (DMSO) were added at a final concentration of 10 μM (DMSO solvent final concentration was 0.5%) and the cells were incubated for 72 hours at 37° C. under 5% CO2 atmosphere. The effects of compounds on HCV replication were then assessed by measuring the Renilla luciferase activity in compound-treated versus DMSO-treated cells. At the end of the incubation period, the medium was aspirated and the cells were washed with 1×PBS. The Renilla luciferase reporter gene assay was performed using the Renilla luciferase assay kit (PROMEGA, Madison, Wis.) according to the manufacturer's instructions. Briefly, the cells were lysed by addition of 50 μL of 1× Renilla luciferase lysis buffer followed by two cycles of freeze/thaw. The luciferase activity content of the lysate was measured with a FLUOSTAR Omega microplate reader instrument (BMG Labtech, Germany) after injecting 50 μL of luciferase substrate and reading for 5 seconds.
To determine if the above identified compounds might be useful as HCV antiviral agents, they were added to cells harboring HCV subgenomic RNA replicon. The HCV replicon chosen was derived from the same HCV strain (genotype 1b) as the NS3 protein used for screening and enzyme assays. […] 75:4614-4624; Blight, et al. (2002) J. Virol. 76:13001-13014). […]

MBHA DNA substrate = assay: Modified FID assay, SYBR Green I; type: binding; details: for DNA binding (%): SYBR Green I-FID, average (±SD) percent bound at 100 μM; for FID (SG) % Displaced @ 100 μM / EC50: SYBR Green; for EC50: read-out: FID (SG) EC50 (converted)
Protocol: A modified FID assay, in which ethidium bromide was replaced with SYBR Green I (Invitrogen), was used to estimate a compounds affinity for the MBHA substrate. Reactions were performed as described above except that the DNA substrate was present at 0.32 μM, ethidium bromide was absent, and SYBER Green was present at (0.68 μM). Data were normalized as described above and fit to concentration-response equation using GraphPad Prism software. Titrations with each compound were performed in triplicate, and EC50 values from three independent titrations are reported ±standard deviations.

[2] = biological target: T1, E. coli SSB-Cy5-dT15 complex (Escherichia coli, UniProt P0AGE0); assay: Escherichia coli SSB Cy5-dT15 binding assay (fluorescence polarization); details: for IC50: disruption of Cy5-dT15-SSB complex, read-out: Cy5-dT15-SSB Binding IC50; for inhibition at 100 µM: read-out: SSB % Displaced @ 100 μM; for EC50: read-out: SSB EC50
T1 construct: purchased Promega
Protocol: The Escherichia coli SSB assay was performed in a total volume of 20.2 μl in 384-well, flat-bottom, low volume, black microplates (Greiner Bio-One). First, 20 μl of a assay solution (5 nM Cy5-[…]-3′ (Cy5-dT15, SEQ ID NO:5), 20 nM E. coli SSB (Promega), 25 mM MOPS, pH 7.5, 1.25 mM MgCl2, 0.0025 mg/ml BSA, 0.005% (v/v) TWEEN 20 and 0.025 mM DTT) was dispensed in each well, then 0.2 μl of dimethylsulfoxide (DMSO) or compound dissolved in DMSO was added by pin transfer, such that the final concentration of DMSO was 1% (v/v) in each assay.
For IC50 determination, assays were performed with 60 μl total volume in black flat bottomed 384-well microplates (Corning). First, 3.0 μl of DMSO or compound dissolved in DMSO was added, such that the final concentration of DMSO was 5% (v/v) in each assay. Then 57 μl of a assay solution (5 nM Cy5-dT15, 20 nM SSB, 25 mM MOPS, pH 7.5, 1.25 mM MgCl2, 0.0025 mg/ml BSA, 0.005% (v/v) TWEEN 20 and 0.025 mM DTT) was dispensed in each well. Polarization was monitored with a TECAN Infinite M1000 PRO multi-mode microplate reader by exciting at 635 nm (5 nm bandwidth) and measuring total fluorescence intensity, parallel and perpendicular polarized light at 667 nm (20 nm bandwidth).

[3] = Huh7.5, 10 μM compound, triplicate, average ± SD, read-out: HCV replication (% Inh.)
[4] = Huh7.5, 10 μM, read-out: Replicon (% Inhibition @ 10 μM)

T1 sequence (P0AGE0 2-178, one chain of several): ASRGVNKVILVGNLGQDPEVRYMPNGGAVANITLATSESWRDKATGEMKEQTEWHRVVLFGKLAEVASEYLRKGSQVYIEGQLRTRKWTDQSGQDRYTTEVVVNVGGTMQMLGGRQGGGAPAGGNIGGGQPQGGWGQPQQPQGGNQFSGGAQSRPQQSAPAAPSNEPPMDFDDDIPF

Compound	inhibition at 10 µM [1, 3]	inhibition at 10 µM [1, 4]	DNA binding (%) (MBHA DNA substrate)	FID (SG) % Displaced @ 100 μM (MBHA DNA substrate)	EC50 (MBHA DNA substrate)	IC50 [2]	inhibition at 100 µM [2]	EC50 [2]
Cc1ccc2nc(-c3ccc4nc(-c5ccc(NC(=O)c6ccc(C(F)(F)F)cc6)cc5)sc4c3)sc2c1S(=O)(=O)O [Compound 12, 6-methyl-2′-(4-(4-(trifluoromethyl)benzamido)phenyl)-[2,6′-bibenzo[d]thiazole]-7-sulfonic acid]	44 ± 12%	44 ± 12%	69 ± 9%	69 ± 9%	29 ± 9 µM	3 µM	80%	4 ± 2 µM
Cc1ccc2nc(-c3ccc(NC(=O)c4ccc(NC(=O)Nc5ccccc5)cc4)cc3)sc2c1S(=O)(=O)O.N [Compound 45]		-64 ± 90%		17 ± 2%	> 100 µM	20 ± 4 µM	96%	20 µM
Cc1ccc2nc(-c3ccc4nc(-c5ccc(NC(=O)c6cccc7ccccc67)cc5)sc4c3)sc2c1S(=O)(=O)O.N [Compound 49]		-9 ± 8%		80 ± 3%	30 µM	9 ± 2 µM	94%	9 µM
COc1ccc(S(=O)(=O)Nc2ccc(-c3nc4ccc(-c5nc6ccc(C)c(S(=O)(=O)O)c6s5)cc4s3)cc2)cc1 [Compound 29, 2′-(4-(4-methoxyphenylsulfonamido)phenyl)-6-methyl-[2,6′-bibenzo[d]thiazole]-7-sulfonic acid]	44 ± 5%	44 ± 5%	69 ± 4%	69 ± 4%	42 µM	10 ± 2 µM	98%	10 µM
Cc1ccc2nc(-c3ccc4nc(-c5ccc(NC(=O)c6ccc(F)cc6)cc5)sc4c3)sc2c1S(=O)(=O)O.N [Compound 7, 2′-(4-(4-fluorobenzamido)phenyl)-6-methyl-[2, bibenzo[d]thiazole]-7-sulfonic acid]	50 ± 5%	50 ± 5%	35 ± 15%	35 ± 15%	> 100 µM	14 ± 4 µM	88%	14 ± 4 µM
Cc1ccc2nc(-c3ccc(NC(=O)c4ccc(NC(=O)OCC5c6ccccc6-c6ccccc65)cc4)cc3)sc2c1S(=O)(=O)O.N [Compound 42]		31 ± 10%		44 ± 2%	> 100 µM	27 ± 5 µM	93%	27 µM
Cc1ccc2nc(-c3ccc4nc(-c5ccc(NC(=O)c6ccc(C(F)(F)F)c(F)c6)cc5)sc4c3)sc2c1S(=O)(=O)O [Compound 23, 2′-(4-(3-fluoro-4-(trifluoromethyl)benzamido)phenyl)-6-methyl-[2,6′-bibenzo[d]thiazole]-7-sulfonic acid]	48 ± 4%	48 ± 4%	66 ± 18%	66 ± 18%	28 ± 28 µM	10 ± 1 µM	92%	10 ± 1 µM
Cc1ccc2nc(-c3ccc4nc(-c5ccc(NC(=O)c6ccc(C(C)(C)C)cc6)cc5)sc4c3)sc2c1S(=O)(=O)O [Compound 13, 2′-(4-(4-(tert-butyl)benzamido)phenyl)-6-methyl-[2,6′-bibenzo[d]thiazole]-7-sulfonic acid]	51 ± 9%	51 ± 9%	72 ± 19%	72 ± 19%	16 ± 6 µM	32 ± 7 µM	80%	32 ± 7 µM
Cc1ccc2nc(-c3ccc4nc(-c5ccc(NC(=O)c6ccc7nc(-c8ccc(N)cc8)sc7c6)cc5)sc4c3)sc2c1S(=O)(=O)O [Compound 35, 2′-(4-(2-(4-aminophenyl)benzo[d]thiazole-6-carboxamido)phenyl)-6-methyl-[2,6′-bibenzo[d]thiazole]-7-sulfonic acid]	37 ± 4%	37 ± 4%	59 ± 4%	59 ± 4%	68 µM	3 ± 1 µM	95%	
Cc1ccc2nc(-c3ccc4nc(-c5ccc(NC(=O)c6ccc(N(C)C)cc6)cc5)sc4c3)sc2c1S(=O)(=O)O [Compound 14, 2′-(4-(4-(dimethylamino)benzamido)phenyl)-6-methyl-[2,6′-bibenzo[d]thiazole]-7-sulfonic acid]	22 ± 2%	22 ± 2%	44 ± 4%	44 ± 4%	> 100 µM	4 ± 1 µM	98%	4 ± 1 µM
Cc1ccc2nc(-c3ccc4nc(-c5ccc(NC(=O)c6cc(C(F)(F)F)ccc6F)cc5)sc4c3)sc2c1S(=O)(=O)O [Compound 25, 2′-(4-(2-fluoro-5-(trifluoromethyl)benzamido)phenyl)-6-methyl-[2,6′-bibenzo[d]thiazole]-7-sulfonic acid]	39 ± 4%	39 ± 4%	35 ± 26%	35 ± 26%	> 100 µM	12 ± 8 µM	69%	12 ± 8 µM
